The record followed here is US20230085307A1, “PYRIDAZINONE COMPOUND AND HERBICIDE” (NISSAN CHEMICAL CORPORATION, priority 2019, published 2023).

In test [1] the test system is redroot pigweed. Description: Test Example 4: herbicidal effect by soil treatment (Table 19, symbol N). The note with it: amount of applied herbicide 320 g/ha. It is filed as in vivo, redroot pigweed (Amaranthus retroflexus). The procedure, abridged:
(§1)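 Step 1: sow seeds in sterilized diluvial soil, cover ~1.5 cm. Step 2: spray diluted emulsion onto soil surface at predetermined rate. Step 3: greenhouse, 25–30° C, three weeks. Step 4: grade effect on each plant by earlier criteria.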

In test [2] the test system is chickweed. Description: Test Example 5: herbicidal effect by foliage application, plastic box (Table 20, symbol P). Type of test: in vivo, common chickweed (Stellaria media). The note with it: foliage application, 320 g/ha, three weeks after application. The method, boiled down: (§2)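 Foliar spray test: emulsion formulation diluted in water to a set application rate, sprayed onto 14-day-old plants raised in diluvial soil at 25° C to 30° C under glass. Both herbicidal effect and crop effect rated visually three weeks later.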

Test [3] deals with wild oat. Briefly: Test Example 4: herbicidal effect by soil treatment (Table 19, symbol I). It is filed as in vivo, wild oat (Avena fatua). The settings on record: amount of applied herbicide 320 g/ha. The method, boiled down:
as §1

Test [4] relates to late watergrass. Description: Test Example 1: herbicidal activity, application before weed generation under submerged conditions (Table 16, symbol A). Type of test: in vivo, late watergrass (Echinochloa oryzicola). The note with it: amount of applied herbicide 320 g/ha. The procedure, abridged: (§3)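 Alluvial soil was flooded to 4 cm depth, weed seeds were sown mixed and 2.5-leaf rice seedlings were transplanted. On sowing day, the compound's emulsion, diluted in water to a set dose, was applied to the water surface. Plants grew at 25–30 °C and were scored 0–5 after three weeks.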

Test [5] deals with blackgrass. Description: Test Example 4: herbicidal effect by soil treatment (Table 19, symbol J). Type of test: in vivo, blackgrass (Alopecurus myosuroides). The settings on record: amount of applied herbicide 320 g/ha. The procedure, abridged:
as §1

Test [6] has as its system barnyard grass. Description: Test Example 5: herbicidal effect by foliage application, plastic box (Table 20, symbol H). The note with it: foliage application, 320 g/ha, three weeks after application. Type of test: in vivo, barnyard grass (Echinochloa crus-galli). The procedure, abridged:
as §2

Test [7] deals with barnyard grass. Description: Test Example 4: herbicidal effect by soil treatment (Table 19, symbol H). Type of test: in vivo, barnyard grass (Echinochloa crus-galli). The settings on record: amount of applied herbicide 320 g/ha. The method, boiled down:
as §1

Test [8] deals with oval-leafed pondweed. Briefly: Test Example 2: herbicidal activity, application during weed generation under submerged conditions (Table 17, symbol C). Type of test: in vivo, oval-leafed pondweed (Monochoria vaginalis). The settings on record: AAH 320 g/ha; application during weed generation, submerged conditions. The method, boiled down: (§4)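 3-wk visual-criteria score after one water-surface dose. Emulsion formulation, water-diluted to set rate; applied at 1–2 leaf stage; alluvial soil, 4 cm standing water; seeds co-sown; greenhouse 25–30° C.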

Test [9] has as its system redroot pigweed. Briefly: Test Example 5: herbicidal effect by foliage application, plastic box (Table 20, symbol N). The note with it: foliage application, 320 g/ha, three weeks after application. Type of test: in vivo, redroot pigweed (Amaranthus retroflexus). The procedure, abridged:
as §2

The test system of test [10] is Japanese bulrush. Briefly: Test Example 1: herbicidal activity, application before weed generation under submerged conditions (Table 16, symbol B). It is filed as in vivo, Japanese bulrush (Schoenoplectus juncoides). The settings on record: amount of applied herbicide 320 g/ha. The method, boiled down: as §3
For test [11], the system named is southern crabgrass. Briefly: Test Example 4: herbicidal effect by soil treatment (Table 19, symbol F). Type of test: in vivo, southern crabgrass (Digitaria ciliaris). The note with it: amount of applied herbicide 320 g/ha. The procedure, abridged:
as §1

Test [12] concerns blackgrass. Briefly: Test Example 5: herbicidal effect by foliage application, plastic box (Table 20, symbol J). Type of test: in vivo, blackgrass (Alopecurus myosuroides). The settings on record: foliage application, 320 g/ha, three weeks after application. The method, boiled down:
as §2

Test [13] has as its system green foxtail. Briefly: Test Example 5: herbicidal effect by foliage application, plastic box (Table 20, symbol G). Type of test: in vivo, green foxtail (Setaria viridis). The note with it: foliage application, 320 g/ha, three weeks after application. The procedure, abridged: as §2
In test [14] the test system is Japanese bulrush. Briefly: Test Example 2: herbicidal activity, application during weed generation under submerged conditions (Table 17, symbol B). It is filed as in vivo, Japanese bulrush (Schoenoplectus juncoides). The note with it: AAH 320 g/ha; application during weed generation, submerged conditions. The procedure, abridged:
as §4

Test [15] deals with wild oat. Briefly: Test Example 5: herbicidal effect by foliage application, plastic box (Table 20, symbol I). Type of test: in vivo, wild oat (Avena fatua). The note with it: foliage application, 320 g/ha, three weeks after application. The method, boiled down:
as §2

The test system of test [16] is Italian ryegrass. Briefly: Test Example 4: herbicidal effect by soil treatment (Table 19, symbol K). Type of test: in vivo, Italian ryegrass (Lolium multiflorum). The note with it: amount of applied herbicide 320 g/ha. The procedure, abridged:
as §1

Take `COc1ccccc1-c1sc2cc(OC(C)C)ccc2c1-c1c(O)c(C)nn(C)c1=O` [3-101]: the “N: redroot pigweed, herbicidal effect grade” value (“N: redroot pigweed” for short) was 4 (Herbicidal rate of 70% or more and less than 90%) in [1]; 5 (Herbicidal rate of 90% or more (almost completely withered)) in [9]. In addition, the “P: chickweed, herbicidal effect grade” value in test [2] is 5 (Herbicidal rate of 90% or more (almost completely withered)). Also, the “I: wild oat, herbicidal effect grade” value is 1 (Herbicidal rate of 5% or more and less than 20%) in test [3]; 4 (Herbicidal rate of 70% or more and less than 90%) in test [15]. Moreover, in test [4], the “Herbicidal effect, A: late watergrass” value is listed as 5 (Herbicidal rate of 90% or more (almost completely withered)). Further, the “J: blackgrass, herbicidal effect grade” value in [5] is 4 (Herbicidal rate of 70% or more and less than 90%); in [12] it was 5 (Herbicidal rate of 90% or more (almost completely withered)). Also, the “H: barnyard grass, herbicidal effect grade” value (shortened to “H: barnyard grass”) in test [6] and in test [7] was 5 (Herbicidal rate of 90% or more (almost completely withered)) each time. Also, the “herbicidal effect rating, C: oval-leafed pondweed” value (shortened to “herbicidal effect rating, C”) in test [8] was 2 (Herbicidal rate of 20% or more and less than 40%). In addition, the “Herbicidal effect, B: Japanese bulrush” value in [10] is reported as 5 (Herbicidal rate of 90% or more (almost completely withered)). For the same compound, the “F: southern crabgrass, herbicidal effect grade” value (from here on “F: southern crabgrass”) in test [11] is 2 (Herbicidal rate of 20% or more and less than 40%). Besides, in test [13], the “G: green foxtail, herbicidal effect grade” value (from here on “G: green foxtail”) is on record as 5 (Herbicidal rate of 90% or more (almost completely withered)). Further, the “herbicidal effect rating, B: Japanese bulrush” value (“herbicidal effect rating, B” for short) in test [14] was 3 (Herbicidal rate of 40% or more and less than 70%). Also, in test [16], the “K: Italian ryegrass, herbicidal effect grade” value (“K: Italian ryegrass” for short) is 5 (Herbicidal rate of 90% or more (almost completely withered)).
On to `CCCCOc1ccc2c(-c3c(O)c(C)nn(C)c3=O)c(-c3ccccc3OC)sc2c1` [3-105], for which the “N: redroot pigweed” value in test [1] is 4 (Herbicidal rate of 70% or more and less than 90%); in test [9], 5 (Herbicidal rate of 90% or more (almost completely withered)). Moreover, the “P: chickweed, herbicidal effect grade” value in [2] is given as 5 (Herbicidal rate of 90% or more (almost completely withered)). Further, the “I: wild oat, herbicidal effect grade” value in [3] was 0 (Herbicidal rate of 5% or less (almost no effect)); in test [15], 4 (Herbicidal rate of 70% or more and less than 90%). For the same compound, the “Herbicidal effect, A: late watergrass” value in test [4] is recorded as 5 (Herbicidal rate of 90% or more (almost completely withered)). The “J: blackgrass, herbicidal effect grade” value in test [5] was 0 (Herbicidal rate of 5% or less (almost no effect)); in test [12] it was 5 (Herbicidal rate of 90% or more (almost completely withered)). Further, the “H: barnyard grass” value in test [6] is 4 (Herbicidal rate of 70% or more and less than 90%); in [7] it was 0 (Herbicidal rate of 5% or less (almost no effect)). Besides, the “herbicidal effect rating, C” value in test [8] was 4 (Herbicidal rate of 70% or more and less than 90%). For the same compound, the “Herbicidal effect, B: Japanese bulrush” value in test [10] is listed as 5 (Herbicidal rate of 90% or more (almost completely withered)). In addition, the “F: southern crabgrass” value in test [11] was 0 (Herbicidal rate of 5% or less (almost no effect)). For the same compound, the “G: green foxtail” value in test [13] is recorded as 5 (Herbicidal rate of 90% or more (almost completely withered)). The “herbicidal effect rating, B” value in [14] is 3 (Herbicidal rate of 40% or more and less than 70%). Also, in [16], the “K: Italian ryegrass” value is recorded as 5 (Herbicidal rate of 90% or more (almost completely withered)).
In the case of `COc1ccccc1-c1sc2cc(OCC(C)C)ccc2c1-c1c(O)c(C)nn(C)c1=O` [3-107], the “N: redroot pigweed” value in [1] and in [9] was 5 (Herbicidal rate of 90% or more (almost completely withered)) each time. The “P: chickweed, herbicidal effect grade” value in test [2] was 5 (Herbicidal rate of 90% or more (almost completely withered)). Further, the “I: wild oat, herbicidal effect grade” value in [3] and in test [15] was 0 (Herbicidal rate of 5% or less (almost no effect)) throughout. Moreover, the “Herbicidal effect, A: late watergrass” value in [4] was 4 (Herbicidal rate of 70% or more and less than 90%). Also, the “J: blackgrass, herbicidal effect grade” value in [5] was 0 (Herbicidal rate of 5% or less (almost no effect)); in test [12], 4 (Herbicidal rate of 70% or more and less than 90%). The “H: barnyard grass” value in test [6] is 3 (Herbicidal rate of 40% or more and less than 70%); in [7], 3 (Herbicidal rate of 40% or more and less than 70%). In addition, the “herbicidal effect rating, C” value in test [8] is reported as 5 (Herbicidal rate of 90% or more (almost completely withered)). Further, in test [10], the “Herbicidal effect, B: Japanese bulrush” value is recorded as 5 (Herbicidal rate of 90% or more (almost completely withered)). For the same compound, the “F: southern crabgrass” value in test [11] was 3 (Herbicidal rate of 40% or more and less than 70%). For the same compound, the “G: green foxtail” value in [13] was 5 (Herbicidal rate of 90% or more (almost completely withered)). Besides, in [14], the “herbicidal effect rating, B” value was 5 (Herbicidal rate of 90% or more (almost completely withered)). Also, the “K: Italian ryegrass” value in [16] is recorded as 5 (Herbicidal rate of 90% or more (almost completely withered)).
Regarding `CCCCCOc1ccc2c(-c3c(O)c(C)nn(C)c3=O)c(-c3ccccc3OC)sc2c1` [3-108], the “N: redroot pigweed” value in [1] was 4 (Herbicidal rate of 70% or more and less than 90%); in test [9], 5 (Herbicidal rate of 90% or more (almost completely withered)). In test [2], the “P: chickweed, herbicidal effect grade” value was 3 (Herbicidal rate of 40% or more and less than 70%). The “I: wild oat, herbicidal effect grade” value in test [3] and in test [15] was 0 (Herbicidal rate of 5% or less (almost no effect)) each time. Also, the “Herbicidal effect, A: late watergrass” value in test [4] was 3 (Herbicidal rate of 40% or more and less than 70%). In addition, the “J: blackgrass, herbicidal effect grade” value in test [5] and in [12] was 0 (Herbicidal rate of 5% or less (almost no effect)) throughout. Besides, the “H: barnyard grass” value in [6] and in test [7] was 0 (Herbicidal rate of 5% or less (almost no effect)) each time. Also, the “herbicidal effect rating, C” value in test [8] was 0 (Herbicidal rate of 5% or less (almost no effect)). Also, the “Herbicidal effect, B: Japanese bulrush” value in [10] is 3 (Herbicidal rate of 40% or more and less than 70%). The “F: southern crabgrass” value in test [11] is 0 (Herbicidal rate of 5% or less (almost no effect)). Further, the “G: green foxtail” value in test [13] is 3 (Herbicidal rate of 40% or more and less than 70%). Further, the “herbicidal effect rating, B” value in test [14] was 2 (Herbicidal rate of 20% or more and less than 40%). Besides, the “K: Italian ryegrass” value in test [16] was 0 (Herbicidal rate of 5% or less (almost no effect)).
